The structures appear in SMILES notation. “And” between values parts separate entries of the source, which are not always exact repeats. Identical values can stand only once.

The assay has as its system 873145-292-R-J1-PDC complex spheroid viability. The assay is described as follows: Anticancer human tumor 873145-292-R-J1-PDC patient-derived renal clear cell carcinoma cell line growth inhibition [POLQ]. As to conditions: for viability, T/C: stronger effect = lower value. As to the method: Multicellular complex tumor spheroid response to Polymerase (POL) inhibitors (novobiocin, ART-558, RP6685) in combination with a variety of drugs and investigational agents in selected tumor cell lines
The POL inhibitors (novobiocin, ART-558, and RP6685) were evaluated both individually and in combination with standard of care and investigational anticancer small molecules within a complex spheroid model of solid tumors. . Complex spheroids include a stromal component modeled by human endothelial cells (HUVEC) and fibroblasts modeled by human mesenchymal stem cells (MSCs). The concentration ranges selected for each drug and investigational agent were based upon clinically achievable concentrations if the clinical Cmax of the agent was known.
Compounds. The drugs and investigational agents: novobiocin (NSC847541), ART-558 (NSC835418), RP-6685 (NSC848927), peposertib (NSC802822), ceralasertib (NSC780249), elimusertib (NSC800525), camonsertib (NSC841442), AZD-1390 (NSC803789), olaparib (NSC753686), talazoparib (NSC767125), rucaparib (NSC756644), sotorasib (NSC818433), MRTX-1133 (NSC836407), SN-38 (NSC673596), topotecan (NSC609699), epotoside (NSC141540), doxorubicin (NSC123127), gemcitabine (NSC613327), 5-fluorouracil (NSC19893), paclitaxel (NSC125973), vemurafenib (NSC761431), MSA-2 (NSC828583), SN-011 (NSC837082), adavosertib (NSC754352), prexasertib (NSC758257), carboplatin (NSC241240) and oxaliplatin (NSC266046), were obtained from the National Cancer Institute (NCI) Developmental Therapeutics Program Chemical Repository (21). The FDA-approved anticancer drug set is available from the Developmental Therapeutics Program at https://dtp.cancer.gov/organization/dscb/obtaining/. […] The stock solutions were prepared in dimethyl sulfoxide (DMSO, Sigma-Aldrich, St. Louis, MO, cat. D2650), except for the platinum compounds which were prepared in saline (Quality Biological, Gaithersburg, MD, cat. 114-055-101), at 800-fold the tested concentration and stored at -70 degrees C prior to their use. All drugs and investigational agents were tested over a range starting from a high concentration at or near the clinical Cmax and decreasing in half-log increments. If the clinical Cmax for an agent had not been determined, the highest concentration tested was 10 microM, except for SN-38, which was tested at a high concentration of 1 microM.
Cell Culture. All cells were maintained in an incubator at 37 degrees C and 5% CO2 with 95% humidity. The PDC lines were cultured according to standard operating procedures established by the NCI PDMR (https://pdmr.cancer.gov). Table 3 of the manuscript, lists the cell lines along with the number of the three cell types plated to form the mct-spheroids and media for tumor cell growth. After thawing, all PDC lines, except 997537-175-T-J1-PDC and 415267-285-R-J2-PDC, were cultured in Matrigel-coated flasks prepared with a working solution of 1X Ham's F-12 nutrient mix, without supplementation (Thermo Fisher Scientific, cat. 11765054), 100 U/mL penicillin-streptomycin (Thermo Fisher Scientific, cat. 15140122), and 2.5% Matrigel (Corning Inc., Corning, NY, cat. 354248) for the first three passages. The two PDC lines 997537-175-T-J1-PDC and 415267-285-R-J2-PDC were cultured on uncoated flasks. The 857933-349-R-J2-PDC line was cultured in 6C/Colon 1B media containing advanced DMEM/F-12 (Thermo Fisher Scientific, cat. 12634028), 10 mM HEPES (Thermo Fisher Scientific, cat. 15630080), 1X GlutaMAX supplement (Thermo Fisher Scientific, cat. 35050061), 0.1 mg/mL primocin (InvivoGen, San Diego, CA, cat. ant-pm-2), 10% defined fetal bovine serum, heat inactivated (HyClone Laboratories Inc., Logan, UT, cat. SH30070.03HI), 50% L-WRN conditioned media (ATCC, cat. CRL-3276), 1.25 mM N-Acetyl-L-cysteine (Sigma-Aldrich, cat. A9165), 10 mM nicotinamide (Sigma-Aldrich, cat. N0636), 1X B-27 supplement (Thermo Fisher Scientific, cat. 17504044), 1X N-2 supplement (Thermo Fisher Scientific, cat. […]
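Further: spheroids exposed to compounds for 7 days before viability readout.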
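Wherever viability, T/C is given: luminescence signal used as surrogate for viable cell content.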

As a reminder, the viability, T/C is the ratio of treated to control. What is called IC50 is the concentration at which inhibition is half-maximal. With `C#Cc1c(F)ccc2cc(O)cc(-c3ncc4c(N5CC6CCC(C5)N6)nc(OCC56CCCN5CC(F)C6)nc4c3F)c12` (stereo not given), the viability, T/C reads like this: (compound 0.0316 µM) 99.2% and 106% and 107%; (compound 0.1 µM) 104% and 107% and 91.8%; (compound 0.316 µM) 90.8% and 96.4% and 88.5%; (compound 1 µM) 89% and 91.7% and 89.9%; (compound 3.16 µM) 91.4% and 107% and 86%; (compound 10 µM) 85% and 95.8% and 82.9%. Also, the IC50 (curve of compound) was greater than 10 µM.
Regarding `CC1COCCN1c1cc(C2(O)CC3CCC(C2)O3)c2cnn(-c3ccn[nH]3)c2n1` (stereo not given), the viability, T/C was 86.7% and 86.2% and 97.9% (compound 0.0316 µM); 84.8% and 72% and 82.1% (compound 0.1 µM); 56.8% and 49.1% and 60.9% (compound 0.316 µM); 48.6% and 43% and 55.3% (compound 1 µM); 40% and 39.9% and 48.1% (compound 3.16 µM); 31.9% and 32.5% and 41% (compound 10 µM). Also, for the setting “curve of compound”, the IC50 was 0.741 µM and 0.385 µM and 1.81 µM.
In the case of `CCc1cc2c(N3CCc4c(cc(Cn5ccnc5)cc4-c4cn(C)nc4C(F)(F)F)C3=O)cc(C)nc2c(OC)n1`, the viability, T/C reads like this: (compound 0.0316 µM) 95.3% and 101% and 104%; (compound 0.1 µM) 96.6% and 94.7% and 102%; (compound 0.316 µM) 88.5% and 93.9% and 90.2%; (compound 1 µM) 94.2% and 85.1% and 80.9%; (compound 3.16 µM) 85.1% and 79.1% and 86.5%; (compound 10 µM) 80.2% and 85.1% and 81%. Under “curve of compound”, the IC50 is greater than 10 µM.
As for `CCc1cc2c(N3CCc4c(cc(Cn5ccnc5)cc4-c4cn(C)nc4C(F)(F)F)C3=O)ccnc2c(OC)n1`, the viability, T/C is 107% and 99% and 101% (compound 0.0316 µM); 89.9% and 92.2% and 96.8% (compound 0.1 µM); 89.1% and 97.3% and 84.2% (compound 0.316 µM); 92.1% and 87.7% and 87.1% (compound 1 µM); 86.4% and 98% and 86.1% (compound 3.16 µM); 75.7% and 91.9% and 81.5% (compound 10 µM). In addition, the IC50 (curve of compound) is greater than 10 µM.
As for `COc1cc2cc(C(=O)CCC(=O)O)sc2cc1OC`, the viability, T/C (compound 0.0316 µM) is 112% and 99.5% and 94.5%; the viability, T/C (compound 0.1 µM) was 107% and 103% and 89.5%; the viability, T/C (compound 0.316 µM) was 96.3% and 97.8% and 104%; the viability, T/C (compound 1 µM) is 101% and 96.7% and 102%; the viability, T/C (compound 3.16 µM) was 98.9% and 105% (2×); the viability, T/C (compound 10 µM) was 99.8% and 101% and 109%. For the same molecule, for the setting “curve of compound”, the IC50 is greater than 10 µM.
For the molecule `Nc1ccc(C#CCN(C(=O)Cc2ncc(C(F)(F)F)cc2C(F)(F)F)c2ccc(F)cc2)nn1`, the viability, T/C is, setting by setting: (compound 0.1 µM) 101% [middle of 13 runs]; (compound 0.316 µM) 101% [middle of 13 runs]; (compound 1 µM) 95.2% [middle of 13 runs]; (compound 3.16 µM) 103% [middle of 13 runs]; (compound 10 µM) 108% [middle of 13 runs]. Moreover, for the setting “compound alone, run of 01/19/2024”, the IC50 was greater than 10 µM.
Turning to `O=C(Nc1ccc(O)c(NS(=O)(=O)c2ccc(F)cc2)c1)c1ccc(-c2ccccc2)cc1`, the viability, T/C is 115% and 109% and 103% (compound 0.0316 µM); 97.8% and 105% and 91.7% (compound 0.1 µM); 113% and 107% and 99.3% (compound 0.316 µM); 105% and 99.7% and 101% (compound 1 µM); 105% (2×) and 108% (compound 3.16 µM); 104% and 99.2% and 98.4% (compound 10 µM). Also, the IC50 (curve of compound) was greater than 10 µM.
With `COc1cccc2c1C(=O)c1c(O)c3c(c(O)c1C2=O)CC(O)(C(=O)CO)CC3OC1CC(N)C(O)C(C)O1` (stereo not given) + COC1C(OC(N)=O)C(O)C(Oc2ccc3c(O)c(NC(=O)c4ccc(O)c(CC=C(C)C)c4)c(=O)oc3c2C)OC1(C)C, the IC50 (curve of first compound, second compound 0.0316 µM) amounted to 1.61 µM; the IC50 (curve of first compound, second compound 0.1 µM) is 1.6 µM; the IC50 (curve of first compound, second compound 0.316 µM) turned out to be 1.51 µM; the IC50 (curve of first compound, second compound 1 µM) worked out at 1.4 µM; the IC50 (curve of first compound, second compound 3.16 µM) was 1.45 µM; the IC50 (curve of first compound, second compound 10 µM) was 1.5 µM. In addition, the viability, T/C is, setting by setting: (second compound 0.0316 µM, first compound 0.0316 µM) 98.9%; (second compound 0.0316 µM, first compound 0.1 µM) 92.4%; (second compound 0.0316 µM, first compound 0.316 µM) 74.9%; (second compound 0.0316 µM, first compound 1 µM) 81.8%; (second compound 0.0316 µM, first compound 3.16 µM) 4.46%; (second compound 0.0316 µM, first compound 10 µM) 4.3%. In addition, the viability, T/C is 99.5% (second compound 0.1 µM, first compound 0.0316 µM); 91.7% (second compound 0.1 µM, first compound 0.1 µM); 75.1% (second compound 0.1 µM, first compound 0.316 µM); 80.8% (second compound 0.1 µM, first compound 1 µM); 5.22% (second compound 0.1 µM, first compound 3.16 µM); 4.58% (second compound 0.1 µM, first compound 10 µM). In addition, the viability, T/C runs as follows: (second compound 0.316 µM, first compound 0.0316 µM) 98.1%; (second compound 0.316 µM, first compound 0.1 µM) 84.2%; (second compound 0.316 µM, first compound 0.316 µM) 69.3%; (second compound 0.316 µM, first compound 1 µM) 74.1%; (second compound 0.316 µM, first compound 3.16 µM) 7.63%; (second compound 0.316 µM, first compound 10 µM) 3.12%. The viability, T/C (second compound 1 µM, first compound 0.0316 µM) is 99.6%; the viability, T/C (second compound 1 µM, first compound 0.1 µM) was 78.8%; the viability, T/C (second compound 1 µM, first compound 0.316 µM) was 78.8%; the viability, T/C (second compound 1 µM, first compound 1 µM) is 68.5%; the viability, T/C (second compound 1 µM, first compound 3.16 µM) was 5.35%; the viability, T/C (second compound 1 µM, first compound 10 µM) is 3.76%. The viability, T/C (second compound 3.16 µM, first compound 0.0316 µM) was 93.3%; the viability, T/C (second compound 3.16 µM, first compound 0.1 µM) is 79.8%; the viability, T/C (second compound 3.16 µM, first compound 0.316 µM) was 80.7%; the viability, T/C (second compound 3.16 µM, first compound 1 µM) was 71.1%; the viability, T/C (second compound 3.16 µM, first compound 3.16 µM) was 5.62%; the viability, T/C (second compound 3.16 µM, first compound 10 µM) was 2.42%. In addition, the viability, T/C by setting is: (second compound 10 µM, first compound 0.0316 µM) 101%; (second compound 10 µM, first compound 0.1 µM) 90.1%; (second compound 10 µM, first compound 0.316 µM) 78.2%; (second compound 10 µM, first compound 1 µM) 74.4%; (second compound 10 µM, first compound 3.16 µM) 5.66%; (second compound 10 µM, first compound 10 µM) 2.86%.

Source of the values: PubChem BioAssay AID1963834 (Molecular Pharmacology Branch, DTP, NCI, 2024).
